# Reference: patent US8153593B2, “Transglutaminase inhibitors and methods of use thereof” (The Board of Trustees of the Leland Stanford Junior …, priority 2003, dated 2012)
# Tests used:
# [1] = system: subcutaneous murine DBT glioblastoma tumors; test: Subcutaneous DBT glioblastoma tumor study with BCNU; conditions: in vivo, combination with BCNU
# [2] = molecular target: T1, small intestine mucosal TG2 (Mus musculus, UniProt P21981); test: Small intestine mucosal TG2 activity after intra-peritoneal dosing; format: in vivo, mice
# T1 construct: from tissue; host or cells: mouse small intestinal mucosa
# T1 sequence (P21981 1-686): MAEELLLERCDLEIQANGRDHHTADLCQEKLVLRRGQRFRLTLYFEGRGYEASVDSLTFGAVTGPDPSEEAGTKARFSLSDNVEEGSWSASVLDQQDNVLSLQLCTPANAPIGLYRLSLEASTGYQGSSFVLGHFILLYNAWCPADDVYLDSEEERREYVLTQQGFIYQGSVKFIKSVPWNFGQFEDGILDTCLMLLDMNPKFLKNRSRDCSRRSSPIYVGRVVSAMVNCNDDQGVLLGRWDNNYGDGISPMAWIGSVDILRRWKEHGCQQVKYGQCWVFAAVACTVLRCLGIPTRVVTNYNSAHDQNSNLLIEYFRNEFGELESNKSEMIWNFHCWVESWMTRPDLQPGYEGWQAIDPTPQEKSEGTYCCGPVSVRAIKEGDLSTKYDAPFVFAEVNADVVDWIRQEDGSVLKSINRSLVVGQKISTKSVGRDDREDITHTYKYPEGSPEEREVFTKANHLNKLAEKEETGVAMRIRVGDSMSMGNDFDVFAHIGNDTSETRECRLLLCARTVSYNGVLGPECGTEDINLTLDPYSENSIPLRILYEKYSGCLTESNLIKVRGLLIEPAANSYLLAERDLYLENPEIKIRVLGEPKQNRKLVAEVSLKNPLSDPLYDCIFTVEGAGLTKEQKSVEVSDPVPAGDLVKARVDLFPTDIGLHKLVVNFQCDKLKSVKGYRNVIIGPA
# Experimental: FIG. 7: Time dependent inhibition of small intestine mucosal TG2 in mice dosed intra-peritoneally with 60 mg/kg KCC009. Mice were sacrificed at different times, intestinal mucosa were harvested and assayed for TG2 activity.
# (§1) Due to the absence of an appropriate animal model for Celiac Sprue, the therapeutic benefit of TG2 inhibitors for this disease can only be validated in patients. Our goal is therefore to identify a safe, oral TG2 inhibitor that can block mucosal TG2 activity in the upper small intestine of Celiac Sprue patients. Such an agent could be used in the context of a short (2 week) blinded crossover trial in Celiac Sprue patients to determine if TG2 inhibition protects a Celiac Sprue patient from gluten-induced malabsorption. From available data, KCC009 may be precisely such a compound. […] To test whether orally administered KCC009 can inhibit jejunal TG2 activity, adult male rats were dosed with 35 mg/kg KCC009 in a kneaded gluten vehicle. Animals were sacrificed 1 h after administration of either vehicle-gluten (n=3) or drug-gluten (n=4), and jejunal mucosa was harvested. In vehicle treated animals, jejunal TG2 activity was 21±7 pmol/min/mg protein, whereas in KCC009 treated rats TG2 activity of 5.5±3 pmol/min/mg protein was observed. Thus, a suitable oral formulation may therefore enable local delivery of KCC009 to intestinal mucosa.
# glioblastoma cells = test: In vitro treatment of glioblastoma cells; format: cell-based
# HCT-116 = test: Combination with epothilone C in colon cancer cells; format: cell-based, human; conditions: KCC009 in the 1-100 μM range
# jejunal TG2 = molecular target: T2, jejunal TG2 (Rattus norvegicus, UniProt Q9WVJ6); test: Jejunal mucosal TG2 activity after oral dosing in kneaded gluten vehicle; format: in vivo, rats; conditions: 35 mg/kg oral in kneaded gluten vehicle, 1 h after administration
# T2 construct: from tissue; host or cells: rat jejunal mucosa
# T2 sequence (Q9WVJ6 1-686): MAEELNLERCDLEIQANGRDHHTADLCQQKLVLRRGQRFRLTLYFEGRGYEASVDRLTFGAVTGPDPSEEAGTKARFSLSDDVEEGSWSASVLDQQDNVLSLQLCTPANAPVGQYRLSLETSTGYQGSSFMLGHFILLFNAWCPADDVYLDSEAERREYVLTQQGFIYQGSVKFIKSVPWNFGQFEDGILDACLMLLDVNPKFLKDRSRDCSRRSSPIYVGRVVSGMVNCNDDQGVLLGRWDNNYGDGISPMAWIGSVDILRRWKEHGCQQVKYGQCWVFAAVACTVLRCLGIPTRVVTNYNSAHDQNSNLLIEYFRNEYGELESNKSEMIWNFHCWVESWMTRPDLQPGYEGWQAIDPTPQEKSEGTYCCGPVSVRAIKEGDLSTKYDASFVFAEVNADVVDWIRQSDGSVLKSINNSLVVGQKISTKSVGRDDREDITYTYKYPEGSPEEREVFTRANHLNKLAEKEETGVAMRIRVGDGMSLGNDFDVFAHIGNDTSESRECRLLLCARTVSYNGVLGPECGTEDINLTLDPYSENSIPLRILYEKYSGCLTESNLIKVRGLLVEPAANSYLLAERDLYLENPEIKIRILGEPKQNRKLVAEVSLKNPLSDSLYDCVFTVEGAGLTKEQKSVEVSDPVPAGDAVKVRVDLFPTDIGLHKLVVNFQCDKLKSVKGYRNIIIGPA
# Description: as §1
# intracranial DBT tumors = test: Intracranial DBT glioblastoma dose-finding and chemosensitizer studies; format: in vivo, mice
# Experimental: (§2) To test whether therapeutic doses of KCC009 can modulate TG2 activity associated with intracranial glioblastomas, DBT tumors were injected intracranially in mice. As judged by MRI, the mice consistently established intracranial tumors after 7-10 days following injections, which, if untreated, caused death by 2-3 weeks. In an initial dose-finding experiment, cohorts of mice were administered 4 daily doses of vehicle or KCC009 (12.5 mg/kg, 25 mg/kg and 50 mg/kg) starting on day 11 after intra-cranial injections. Twenty-four hours later, the mice were sacrificed and tumors analyzed. […] Based on these findings a dose of 35 mg/kg was used for subsequent experiments in mice harboring intracranial DBT tumors.
# To evaluate the activity of KCC009 as a chemosensitizer, mice harboring DBT tumors were treated either with 10 mg/kg BCNU alone (2 mice) or BCNU+35 mg/kg KCC009 (3 mice). As before, 4 daily drug doses were administered intraperitoneally starting on day 11. Tumors were harvested for immuno-histological analysis 24 h after the last dose.
# tumor associated TG2 = molecular target: T3, tumor associated TG2 (Mus musculus, UniProt P21981); test: Intracranial DBT tumor associated TG2 activity after dosing; format: in vivo, mice
# T3 construct: from tissue; host or cells: intracranial DBT glioblastoma tumours from dosed mice
# T3 sequence (P21981 1-686): T1 sequence (P21981 1-686)
# Experimental: as §2
# As summarized in Table 4, KCC009 treatment led to significant suppression of TG2 activity after 15 min, whereas enzyme activity recovers fully by 24 h. Both uninhibited and inhibited activity levels are consistent with similar measurements in the small intestinal mucosa (data not shown).
smiles,measurement,setting,value
O=C(N[C@@H](Cc1ccc(O)cc1)C(=O)NCC1CC(Br)=NO1)OCc1ccccc1 (some centres unmarked) [Compound 59],synergism with BCNU,[1],excellent synergism
same,time to complete recovery of TG2 activity,[2]; 60 mg/kg intra-peritoneal,≤ 8 h
same,inhibition of TG2 activity,"[2]; 60 mg/kg intra-peritoneal, short timescale (˜1 h)",strong inhibition of TG2 activity
same,TG2 inhibition in small intestinal tissue,"[2]; mice, preliminary pharmacodynamic study",efficient TG2 inhibition
same,apoptosis,glioblastoma cells,promoted apoptosis
same,changes in levels of survival proteins,glioblastoma cells,"markedly decreased levels of phosphorylated Akt, survivin, phosphorylated Bad, and phosphorylated glycogen synthetase kinase 3β; and increased levels of the pro-apoptotic BH3-only protein, Bim"
same,sensitivity to chemotherapeutic agents,glioblastoma cells,enhanced sensitivity to chemotherapeutic agents
same,reduction of GI50 for epothilone C,HCT-116,> 2 fold
same,jejunal TG2 activity,jejunal TG2,5.5±3 pmol/min/mg protein
same,fibronectin staining of tumors,"intracranial DBT tumors; 10 mg/kg BCNU + 35 mg/kg KCC009 i.p., 4 daily doses, versus BCNU alone",decrease in fibronectin staining overall and an apparent dramatic decrease in the extracellular matrix
same,gross tumor size and brain swelling,"intracranial DBT tumors; 12.5 mg/kg or 25 mg/kg, 4 daily doses from day 11",smaller tumors and reduced brain swelling
same,gross tumor,"intracranial DBT tumors; 50 mg/kg, 4 daily doses from day 11, one mouse",did not have any gross tumor
same,TG2 activity-BCNU + KCC009,"tumor associated TG2; BCNU + 50 mg/kg KCC009, 15 min after last of four daily doses",1.2 ± 0.3 (n = 4) nmol/h/mg protein
same,TG2 activity-BCNU + KCC009,"tumor associated TG2; BCNU + 50 mg/kg KCC009, 24 h after last of four daily doses",2.1 ± 0.2 (n = 3) nmol/h/mg protein
